According to paper PMC11579541, “In vitro, in vivo, and in silico approaches for evaluating the preclinical DMPK profiles of ammoxetine, a novel chiral serotonin and norepinephrine reuptake inhibitor” (Frontiers in Pharmacology, 2024):

Legend:
Excretion study in rats = assay type: in vivo, SD rats; settings: 20 mg/kg oral; for Bile Cumulative excretion rate / Bile Excretion rate: bile duct cannulated rats; for Feces Cumulative excretion rate / Feces Excretion rate / Urine Cumulative excretion rate / Urine Excretion rate: rats
Protocol: Five SD rats were pre-adapted in separate metabolic cages with access to water and a solid diet. They were then administered a single oral dose of 20 mg/kg of ammoxetine after a 12-h fasting period and free access to water. Feces and urine samples were collected at specific time intervals: 0–5 h, 5–12 h, 12–24 h, 24–48 h, and 48–72 h post-administration. The dried fecal weights and urine volumes were measured and recorded at each sampling period. The collected feces were ground, thoroughly mixed, and then homogenized in distilled water to create a 10% homogenate, which was used as the fecal sample. In parallel, after a 12-h fasting period with free access to water, five SD rats were anesthetized, and bile duct cannulation was performed to collect bile samples. Once recovered from anesthesia, these rats received a single oral dose of 20 mg/kg of ammoxetine via oral gavage. Bile was collected at the following time points: 0–5 h, 5–12 h, 12–24 h, 24–48 h, and 48–72 h post-dosing, and its volume was measured. All collected samples were stored at −30°C until further processing. For sample processing, 100 μL of feces homogenates, urine, or bile samples were taken and mixed with 100 μL of L-phencynonate (IS, 50 ng/mL) and 300 μL of methanol. After vortexing, the mixture was centrifuged at 13,800×g for 10 min. The resulting supernatants were analyzed using an LC-MS-MS method.

[1] = PPB assay by ultrafiltration, rat plasma; assay type: in vitro ADME, rats
Protocol: The PPB of ammoxetine was determined using the ultrafiltration method. Triplicate samples of rat, dog, or human plasma were spiked with ammoxetine at three final concentrations (50, 150, and 450 ng/mL). The spiked plasma samples were then incubated in a 37°C air-bath shaker for 1 h until equilibrium was reached. After incubation, 400 μL of the plasma samples were transferred to pre-saturated ultrafiltration devices. These devices were subsequently centrifuged at 13,800×g and 20°C for 20 min to separate the unbound ammoxetine. 100 μL of the test samples were taken and mixed with 100 μL of the IS, L-phencynonate (50 ng/mL), and 300 μL of methanol. Following centrifugation at 13,800×g for 10 min, the supernatants were used to determine the total and free concentrations of ammoxetine in the plasma (C t , C f ) using an LC-MS-MS method. The PPB rate (%) of ammoxetine was calculated by dividing (C t −C f ) by C t .

[2] = Stability of ammoxetine in rat plasma (method validation); assay type: in vitro ADME
Protocol: LC-MS-MS methods were developed and validated to accurately quantify ammoxetine in rat and beagle dog plasma, as well as in rat tissues, urine, feces, and bile. The methods involved direct protein precipitation using methanol, providing a straightforward and rapid sample preparation process with high extraction recovery rates (absolute recoveries >85% in all matrices). […] The precision and accuracy of the plasma methods were evaluated through intra-day and inter-day analyses, yielding satisfactory results. Additionally, stability tests conducted in rat and beagle dog plasma met the analytical requirements for determination. Furthermore, the majority of the analytes met the necessary criteria for matrix effects when quantifying ammoxetine in biological samples. The developed methods are well-suited for determining ammoxetine concentrations in rat and beagle dog biological samples, enabling in vivo studies of this compound. They provide specific and highly sensitive quantification, facilitating investigations into the drug’s behavior in vivo. Detailed results regarding the establishment and validation of these analytical methods can be found in Supplementary Data Sheet 2.

Bile Cumulative excretion rate (Excretion study in rats; 0–5 h): 0.089 ± 0.058%
Bile Excretion rate (Excretion study in rats; 0–5 h): 0.089 ± 0.058%
Bile Cumulative excretion rate (Excretion study in rats; 5–12 h): 0.271 ± 0.257%
Bile Excretion rate (Excretion study in rats; 5–12 h): 0.182 ± 0.212%
Bile Cumulative excretion rate (Excretion study in rats; 12–24 h): 0.420 ± 0.384%
Bile Excretion rate (Excretion study in rats; 12–24 h): 0.149 ± 0.146%
Bile Cumulative excretion rate (Excretion study in rats; 24–48 h): 0.420 ± 0.384%
Bile Excretion rate (Excretion study in rats; 48–72 h): 0.016 ± 0.016%
Bile Cumulative excretion rate (Excretion study in rats; 48–72 h (at 72 h)): 0.436 ± 0.400%
Feces Cumulative excretion rate (Excretion study in rats; 0–5 h): 0.010 ± 0.008%
Feces Excretion rate (Excretion study in rats; 0–5 h): 0.010 ± 0.008%
Urine Cumulative excretion rate (Excretion study in rats; 0–5 h): 0.116 ± 0.034%
Urine Excretion rate (Excretion study in rats; 0–5 h): 0.116 ± 0.034%
Feces Cumulative excretion rate (Excretion study in rats; 5–12 h): 0.216 ± 0.060%
Feces Excretion rate (Excretion study in rats; 5–12 h): 0.206 ± 0.056%
Urine Cumulative excretion rate (Excretion study in rats; 5–12 h): 0.223 ± 0.069%
Urine Excretion rate (Excretion study in rats; 5–12 h): 0.107 ± 0.048%
Feces Cumulative excretion rate (Excretion study in rats; 12–24 h): 0.361 ± 0.168%
Feces Excretion rate (Excretion study in rats; 12–24 h): 0.145 ± 0.126%
Urine Cumulative excretion rate (Excretion study in rats; 12–24 h): 0.273 ± 0.124%
Urine Excretion rate (Excretion study in rats; 12–24 h): 0.050 ± 0.057%
Feces Cumulative excretion rate (Excretion study in rats; 24–48 h): 0.380 ± 0.180%
Feces Excretion rate (Excretion study in rats; 24–48 h): 0.019 ± 0.016%
Urine Cumulative excretion rate (Excretion study in rats; 24–48 h): 0.287 ± 0.134%
Urine Excretion rate (Excretion study in rats; 24–48 h): 0.014 ± 0.010%
Feces Excretion rate (Excretion study in rats; 48–72 h): 0.002 ± 0.003%
Urine Excretion rate (Excretion study in rats; 48–72 h): 0.005 ± 0.003%
Feces Cumulative excretion rate (Excretion study in rats; 48–72 h (at 72 h)): 0.382 ± 0.180%
Urine Cumulative excretion rate (Excretion study in rats; 48–72 h (at 72 h)): 0.292 ± 0.137%
fraction unbound at 1 h, 50 ng/mL ([1]; 50 ng/mL, read-out: Percentage of ammoxetine-protein binding rate (%) (converted)): 0.338
fraction unbound at 1 h, 150 ng/mL ([1]; 150 ng/mL, read-out: Percentage of ammoxetine-protein binding rate (%) (converted)): 0.447
fraction unbound at 1 h, 450 ng/mL ([1]; 450 ng/mL, read-out: Percentage of ammoxetine-protein binding rate (%) (converted)): 0.506
fraction unbound at 1 h ([1]; approximate range over 50-450 ng/mL, read-out: PPB rate): 0.4 to 0.5
Stability in rat plasma, Measured (%) ([2]; 5 ng/mL, -30℃ for 15d): 106.00±2.00%
Stability in rat plasma, Measured (%) ([2]; 5 ng/mL, in auto-sampler for 24h): 114.00±10.00%
Stability in rat plasma, Measured (%) ([2]; 5 ng/mL, room temperature for 4h): 94.00±6.00%
Stability in rat plasma, Measured (%) ([2]; 100 ng/mL, -30℃ for 15d): 105.90±8.30%
Stability in rat plasma, Measured (%) ([2]; 100 ng/mL, in auto-sampler for 24h): 111.20±5.90%
Stability in rat plasma, Measured (%) ([2]; 100 ng/mL, room temperature for 4h): 108.90±7.40%
Stability in rat plasma, Measured (%) ([2]; 800 ng/mL, -30℃ for 15d): 111.74±2.73%
Stability in rat plasma, Measured (%) ([2]; 800 ng/mL, in auto-sampler for 24h): 106.49±0.78%
Stability in rat plasma, Measured (%) ([2]; 800 ng/mL, room temperature for 4h): 114.33±0.73%
SMILES: CNCC[C@H](Oc1cccc2c1OCO2)c1cccs1 [ammoxetine]
